Data from PubChem BioAssay AID1963968 (Molecular Pharmacology Branch, DTP, NCI, 2024).
pIC50: −log10 of the molar value. Where “and” joins values, the source holds several entries; their conditions need not be identical. Equal values may be shown once.

Tested on: 945468-187-T-J3-PDC spheroids with HUVEC/MSC, viability
Experiment: Anticancer human tumor 945468-187-T-J3-PDC patient-derived rectal carcinoma cell line growth inhibition [PI3K]
Conditions: for viability, T/C: stronger effect = lower value
In short: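 High-throughput combination screen: PI3K inhibitors crossed with targeted small molecules on complex spheroids of tumor cells, HUVEC and MSCs at 37 degrees C, 5% CO2. Top concentration was at or near clinical Cmax (otherwise 10 microM), with half-log decrements.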

[1] = curve of first compound, second compound 0.0316 µM
[2] = curve of first compound, second compound 0.1 µM
[3] = curve of first compound, second compound 0.316 µM
[4] = curve of first compound, second compound 1 µM
[5] = second compound 0.0316 µM, first compound 0.0316 µM
[6] = second compound 0.0316 µM, first compound 0.1 µM
[7] = second compound 0.1 µM, first compound 0.0316 µM
[8] = second compound 0.1 µM, first compound 0.1 µM
[9] = second compound 0.316 µM, first compound 0.0316 µM
[10] = second compound 0.316 µM, first compound 0.1 µM
[11] = second compound 1 µM, first compound 0.0316 µM
[12] = second compound 1 µM, first compound 0.1 µM
[13] = curve of first compound, second compound 0.00316 µM
[14] = curve of first compound, second compound 0.01 µM
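Also: spheroids exposed to agents for 7 days before viability read.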
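For viability, T/C in this document: 100% = DMSO vehicle control viability.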

CC(=O)c1c(C)c2cnc(Nc3ccc(N4CCNCC4)cn3)nc2n(C2CCCC2)c1=O + Cc1nc(NC(=O)N2CCCC2C(N)=O)sc1-c1ccnc(C(C)(C)C(F)(F)F)c1
pIC50 [1]: < 7.00 | pIC50 [2]: < 7.00 | pIC50 [3]: < 7.00 | pIC50 [4]: < 7.00 | pIC50 (curve of first compound, second compound 3.16 µM): < 7.00 | pIC50 (curve of first compound, second compound 10 µM): 7.91 | viability, T/C (second compound 0.0316 µM, first compound 0.000316 µM): 98.8% | viability, T/C (second compound 0.0316 µM, first compound 0.001 µM): 100% | viability, T/C (second compound 0.0316 µM, first compound 0.00316 µM): 90.7% | viability, T/C (second compound 0.0316 µM, first compound 0.01 µM): 107% | viability, T/C [5]: 97.5% | viability, T/C [6]: 104% | viability, T/C (second compound 0.1 µM, first compound 0.000316 µM): 91.5% | viability, T/C (second compound 0.1 µM, first compound 0.001 µM): 107% | viability, T/C (second compound 0.1 µM, first compound 0.00316 µM): 85.5% | viability, T/C (second compound 0.1 µM, first compound 0.01 µM): 91% | viability, T/C [7]: 100% | viability, T/C [8]: 102% | viability, T/C (second compound 0.316 µM, first compound 0.000316 µM): 103% | viability, T/C (second compound 0.316 µM, first compound 0.001 µM): 101% | viability, T/C (second compound 0.316 µM, first compound 0.00316 µM): 103% | viability, T/C (second compound 0.316 µM, first compound 0.01 µM): 97.9% | viability, T/C [9]: 99.8% | viability, T/C [10]: 94.3% | viability, T/C (second compound 1 µM, first compound 0.000316 µM): 111% | viability, T/C (second compound 1 µM, first compound 0.001 µM): 103% | viability, T/C (second compound 1 µM, first compound 0.00316 µM): 100% | viability, T/C (second compound 1 µM, first compound 0.01 µM): 97.6% | viability, T/C [11]: 101% | viability, T/C [12]: 102% | viability, T/C (second compound 3.16 µM, first compound 0.000316 µM): 106% | viability, T/C (second compound 3.16 µM, first compound 0.001 µM): 93.2% | viability, T/C (second compound 3.16 µM, first compound 0.00316 µM): 90.5% | viability, T/C (second compound 3.16 µM, first compound 0.01 µM): 90.7% | viability, T/C (second compound 3.16 µM, first compound 0.0316 µM): 90.7% | viability, T/C (second compound 3.16 µM, first compound 0.1 µM): 76.2% | viability, T/C (second compound 10 µM, first compound 0.000316 µM): 57.6% | viability, T/C (second compound 10 µM, first compound 0.001 µM): 56% | viability, T/C (second compound 10 µM, first compound 0.00316 µM): 55.1% | viability, T/C (second compound 10 µM, first compound 0.01 µM): 49.3% | viability, T/C (second compound 10 µM, first compound 0.0316 µM): 46% | viability, T/C (second compound 10 µM, first compound 0.1 µM): 31.3%

CC(C)n1nc(-c2ccc3oc(N)nc3c2)c2c(N)ncnc21
viability, T/C (compound 0.000316 µM): 91.3% [middle of 4 runs] | viability, T/C (compound 0.001 µM): 94.2% [middle of 4 runs] | viability, T/C (compound 0.00316 µM): 104% [middle of 4 runs] | viability, T/C (compound 0.01 µM): 102% [middle of 4 runs] | pIC50 (curve of compound): < 7.00 and 7.03

Cn1cnc2c(F)c(Nc3ccc(Br)cc3Cl)c(C(=O)NOCCO)cc21
viability, T/C (compound 0.00949 µM): 103% [middle of 4 runs] | viability, T/C (compound 0.03 µM): 109% [middle of 4 runs] | viability, T/C (compound 0.0949 µM): 116% [middle of 4 runs] | viability, T/C (compound 0.3 µM): 119% (2×) and 99.5% and 130% | viability, T/C (compound 0.949 µM): 108% [middle of 4 runs] | pIC50 (curve of compound): < 5.52

Cn1ncc(Cl)c1-c1cc(C(=O)NC(CN)Cc2cccc(F)c2)sc1Cl (configuration not stated) + CC(Nc1ccc2c(c1)OCCn1cc(N3C(=O)OCC3C(F)F)nc1-2)C(N)=O
pIC50 [13]: 5.27 | pIC50 [14]: 5.51 | pIC50 [1]: 5.59 | pIC50 [2]: 5.74 | pIC50 [3]: 5.95 | pIC50 [4]: 6.71 | viability, T/C (second compound 0.00316 µM, first compound 0.0316 µM): 100% | viability, T/C (second compound 0.00316 µM, first compound 0.1 µM): 99% | viability, T/C (second compound 0.00316 µM, first compound 0.316 µM): 83.8% | viability, T/C (second compound 0.00316 µM, first compound 1 µM): 80.8% | viability, T/C (second compound 0.00316 µM, first compound 3.16 µM): 58.9% | viability, T/C (second compound 0.00316 µM, first compound 10 µM): 38.1% | viability, T/C (second compound 0.01 µM, first compound 0.0316 µM): 107% | viability, T/C (second compound 0.01 µM, first compound 0.1 µM): 107% | viability, T/C (second compound 0.01 µM, first compound 0.316 µM): 100% | viability, T/C (second compound 0.01 µM, first compound 1 µM): 86.2% | viability, T/C (second compound 0.01 µM, first compound 3.16 µM): 48.5% | viability, T/C (second compound 0.01 µM, first compound 10 µM): 38.2% | viability, T/C [5]: 118% | viability, T/C [6]: 99.6% | viability, T/C (second compound 0.0316 µM, first compound 0.316 µM): 82.4% | viability, T/C (second compound 0.0316 µM, first compound 1 µM): 62% | viability, T/C (second compound 0.0316 µM, first compound 3.16 µM): 47.6% | viability, T/C (second compound 0.0316 µM, first compound 10 µM): 35.1% | viability, T/C [7]: 96.6% | viability, T/C [8]: 89.5% | viability, T/C (second compound 0.1 µM, first compound 0.316 µM): 81.8% | viability, T/C (second compound 0.1 µM, first compound 1 µM): 55.8% | viability, T/C (second compound 0.1 µM, first compound 3.16 µM): 43.9% | viability, T/C (second compound 0.1 µM, first compound 10 µM): 25.9% | viability, T/C [9]: 96% | viability, T/C [10]: 87.8% | viability, T/C (second compound 0.316 µM, first compound 0.316 µM): 57.5% | viability, T/C (second compound 0.316 µM, first compound 1 µM): 55.6% | viability, T/C (second compound 0.316 µM, first compound 3.16 µM): 38.5% | viability, T/C (second compound 0.316 µM, first compound 10 µM): 23.3% | viability, T/C [11]: 89.4% | viability, T/C [12]: 55.2% | viability, T/C (second compound 1 µM, first compound 0.316 µM): 45.4% | viability, T/C (second compound 1 µM, first compound 1 µM): 32.9% | viability, T/C (second compound 1 µM, first compound 3.16 µM): 33% | viability, T/C (second compound 1 µM, first compound 10 µM): 19.6%

Cn1cnc2c(F)c(Nc3ccc(Br)cc3Cl)c(C(=O)NOCCO)cc21 + COc1c(OCCCN2CCOCC2)ccc2c3n(c(=NC(=O)c4cnc(N)nc4)nc12)CCN3
pIC50 [13]: < 5.52 | pIC50 [14]: 5.90 | pIC50 [1]: 6.81 | pIC50 [2]: > 8.02 | pIC50 [3]: > 8.02 | pIC50 [4]: > 8.02 | viability, T/C (second compound 0.00316 µM, first compound 0.00949 µM): 103% | viability, T/C (second compound 0.00316 µM, first compound 0.03 µM): 99.9% | viability, T/C (second compound 0.00316 µM, first compound 0.0949 µM): 103% | viability, T/C (second compound 0.00316 µM, first compound 0.3 µM): 91.7% | viability, T/C (second compound 0.00316 µM, first compound 0.949 µM): 91.8% | viability, T/C (second compound 0.00316 µM, first compound 3 µM): 68% | viability, T/C (second compound 0.01 µM, first compound 0.00949 µM): 96.1% | viability, T/C (second compound 0.01 µM, first compound 0.03 µM): 103% | viability, T/C (second compound 0.01 µM, first compound 0.0949 µM): 89.8% | viability, T/C (second compound 0.01 µM, first compound 0.3 µM): 80.7% | viability, T/C (second compound 0.01 µM, first compound 0.949 µM): 56.4% | viability, T/C (second compound 0.01 µM, first compound 3 µM): 29.9% | viability, T/C (second compound 0.0316 µM, first compound 0.00949 µM): 93.5% | viability, T/C (second compound 0.0316 µM, first compound 0.03 µM): 67.4% | viability, T/C (second compound 0.0316 µM, first compound 0.0949 µM): 64.3% | viability, T/C (second compound 0.0316 µM, first compound 0.3 µM): 36.4% | viability, T/C (second compound 0.0316 µM, first compound 0.949 µM): 27.8% | viability, T/C (second compound 0.0316 µM, first compound 3 µM): 13.7% | viability, T/C (second compound 0.1 µM, first compound 0.00949 µM): 42.2% | viability, T/C (second compound 0.1 µM, first compound 0.03 µM): 33.9% | viability, T/C (second compound 0.1 µM, first compound 0.0949 µM): 27.4% | viability, T/C (second compound 0.1 µM, first compound 0.3 µM): 14.7% | viability, T/C (second compound 0.1 µM, first compound 0.949 µM): 9.64% | viability, T/C (second compound 0.1 µM, first compound 3 µM): 3.84% | viability, T/C (second compound 0.316 µM, first compound 0.00949 µM): 17.5% | viability, T/C (second compound 0.316 µM, first compound 0.03 µM): 18.3% | viability, T/C (second compound 0.316 µM, first compound 0.0949 µM): 10% | viability, T/C (second compound 0.316 µM, first compound 0.3 µM): 8.2% | viability, T/C (second compound 0.316 µM, first compound 0.949 µM): 3.92% | viability, T/C (second compound 0.316 µM, first compound 3 µM): 1.13% | viability, T/C (second compound 1 µM, first compound 0.00949 µM): 13.6% | viability, T/C (second compound 1 µM, first compound 0.03 µM): 8.89% | viability, T/C (second compound 1 µM, first compound 0.0949 µM): 7.97% | viability, T/C (second compound 1 µM, first compound 0.3 µM): 4.92% | viability, T/C (second compound 1 µM, first compound 0.949 µM): 4.14% | viability, T/C (second compound 1 µM, first compound 3 µM): 1.82%
